# How the values were obtained:
# [1] = system: CDDP-resistant A549 (A549 CDDP-r); conditions: 48 hours, 37 °C, Cell counting kit-8
# Procedure: Two days before experiment, A549 and CDDP-resistant A549 (A549 CDDP-r) were each seeded in a 96-well plate at a concentration of 1×10^5 cells/mL. ^211At-AAMT-OMe or ^211At-AAMT adjusted to a predetermined concentration was added to A549 cells and CDDP-resistant A549 cells, respectively, and the cells were cultured (CO2 5%, 37 °C). After the cultivation for 48 hours, Cell counting kit-8 (DOJINDO LABORATORIES) was added. After the addition, the cells were cultured at 37 °C for 1 hour, and cell viability was measured using absorbance at 450 nm as an indicator.
# [2] = background art; cited from earlier work
# [3] = system: human pancreatic cancer cell line (PANC1); assay: Imaging of mice subcutaneously transplanted with human pancreatic cancer cell line PANC1; assay type: in vivo, human (PANC1) in Balb/c-nu/nu mice; conditions: 2 hours after administration, 0.5 MBq/0.2 mL per mouse, tail vein
# Description: Immunodeficient mice (Balb/c-nu/nu, 5-week-old, male) were habituated for 1 week and then subcutaneously transplanted with a human pancreatic cancer cell line (PANC1, 1×10^7 cells/mouse). After the transplantation, the mice were observed over time until tumor reached a size large enough for imaging (about 1000 mm^3). […] Two hours after administration, the mice were anesthetized by isoflurane inhalation, and planar images were taken using a γ camera (E-cam, Siemens).
# [4] = Measurement of accumulated amounts of 211At-labeled compounds in PANC1 tumor-bearing mice; assay type: in vivo, human (PANC1) in Balb/c-nu/nu mice; conditions: tumor, iv, 0.1 MBq/animal, 0.1 MBq/0.2 mL per mouse, tail vein, read-out: tumor accumulation
# Procedure: Radiation doses before and after the administration were measured, and a difference between them was defined as an injected dose (ID). Ten minutes and one hour after administration, the mice were anesthetized by isoflurane inhalation, the tumors were isolated by autopsy in chronological order, and their radiation doses and weights were measured using a gamma counter (2480 Wizard^2, PerkinElmer) and a semimicro scale (Shimadzu Corporation, readability 10 μg), respectively. For comparison between accumulated amounts, accumulated amounts per unit amount (% ID/g) were calculated.
# In Table 1, the amounts of the ^211At-labeled compounds accumulated in tumors of the PANC1 tumor-bearing models (% ID/g) are shown. It should be noted that in Table 1, “OMe” is ^211At-AAMT-OMe, “OEt” is ^211At-AAMT-OEt, “OPr” is ^211At-AAMT-OPr, and “OH” is ^211At-AAMT.
structure (smiles),measurement,setting,value
"C[C@](N)(Cc1ccc(O)c([At])c1)C(=O)O [^211At-AAMT, astato(^211At)-α-methyl-L-tyrosine, reference compound]",cytotoxicity,[1],has cytotoxicity against CDDP-resistant A549 (A549 CDDP-r)
same,clearance,[2],fast clearance
same,accumulation in tumor site (planar γ camera image),[3],accumulated in the tumor sites
same,tissue uptake at 10 min,[4]; 10 minutes after administration,0.29 %ID/g
same,tissue uptake at 1 h,[4]; 1 hour after administration,2.49 %ID/g
